Test results: patent US20240246980A1, “MODULATORS OF MAS-RELATED G-PROTEIN RECEPTOR D AND RELATED PRODUCTS AND METHODS” (Escient Pharmaceuticals, Inc., priority 2022, published 2024)

target: human MRGPRD (Homo sapiens, UniProt Q8TDS7); assay: MRGPRD antagonist activity, IP-One HTRF assay in CHO cells stably expressing human MRGPRD (versus 100 μM β-Alanine agonist); type: cell-based
Procedure, shortened: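 Cells (20,000/well, plated overnight) received antagonist and agonist in buffer with 5.7 mM Tris-HCl, 43 mM NaCl and 50 mM LiCl at pH 8. Incubation ran 1 h at 37 °C, then 1 h at room temperature, before IP-1 HTRF detection. IC50 was fitted from the HTRF ratio, and percent antagonism was taken relative to the maximum efficacy response, given as averages with SEM.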

Sequence of human MRGPRD (Q8TDS7 whole entry): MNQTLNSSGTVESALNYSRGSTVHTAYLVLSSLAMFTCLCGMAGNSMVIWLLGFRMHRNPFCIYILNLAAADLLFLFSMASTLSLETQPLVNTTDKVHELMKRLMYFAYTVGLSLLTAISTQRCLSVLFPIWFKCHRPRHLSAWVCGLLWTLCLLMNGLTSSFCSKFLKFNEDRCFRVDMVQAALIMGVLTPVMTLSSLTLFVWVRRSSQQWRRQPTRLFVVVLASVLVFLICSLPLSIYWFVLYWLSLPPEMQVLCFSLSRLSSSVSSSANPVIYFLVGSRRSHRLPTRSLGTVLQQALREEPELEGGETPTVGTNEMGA

IC50	Structure (SMILES)
> 3 µM	Cc1cccc(-c2nc(C3CCCN(C(=O)Nc4ccccc4F)C3)n3ccccc23)c1 (stereo not shown) [Compound 11-4]
1 to 3 µM	O=C(Nc1ccccc1F)N1CCCC(c2nc(-c3cccc(F)c3)c3ccccn23)C1 (stereo not shown) [Compound 11-5]
> 3 µM	O=C(Nc1ccccc1F)N1CCCC(c2nc(-c3cccnc3)c3ccccn23)C1 (stereo not shown) [Compound 11-6]
1 to 3 µM	Cc1ccc(-c2nc(C3CCCN(C(=O)Nc4ccccc4F)C3)n3ccccc23)cc1 (stereo not shown) [Compound 11-7]
1 to 3 µM	O=C(Nc1ccccc1F)N1CCCC(c2nc(-c3ccc(F)cc3)c3ccccn23)C1 (stereo not shown) [Compound 11-8]
1 to 3 µM	O=C(Nc1ccccc1F)N1CCCC(c2nc(-c3ccncc3)c3ccccn23)C1 (stereo not shown) [Compound 11-10]
> 3 µM	O=C(Nc1ccccc1F)N1CCCC(c2nc(-c3ccccn3)c3ccccn23)C1 (stereo not shown) [Compound 11-11]
0.1 to 0.5 µM	COc1cccc(-c2nc(C3CCCN(C(=O)Cc4ccccc4F)C3)n3ccccc23)c1 (stereo not shown) [Compound 12-1, 2-(2-fluorophenyl)-1-(3-(1-(3-methoxyphenyl)imidazo[1,5-a]pyridin-3-yl)piperidin-1-yl)ethan-1-one]
0.5 to 1 µM	COc1cccc(-c2nc(C3CCCN(C(=O)Cc4ccc(F)cc4)C3)n3ccccc23)c1 (stereo not shown) [Compound 12-2]
0.5 to 1 µM	COc1cccc(-c2nc(C3CCCN(C(=O)c4ccc(F)cc4)C3)n3ccccc23)c1 (stereo not shown) [Compound 12-3]
0.1 to 0.5 µM	COc1cccc(-c2nc(C3CCCN(C(=O)Cc4cccc(F)c4)C3)n3ccccc23)c1 (stereo not shown) [Compound 12-4]
0.5 to 1 µM	COc1cccc(-c2nc(C3CCCN(C(=O)c4ccccc4F)C3)n3ccccc23)c1 (stereo not shown) [Compound 12-5]
0.1 to 0.5 µM	COc1cccc(-c2nc(C3CCCN(C(=O)c4cccc(F)c4)C3)n3ccccc23)c1 (stereo not shown) [Compound 12-6]
0.5 to 1 µM	COc1cccc(-c2nc(C3CCCN(C(=O)c4ccc(C)cc4F)C3)n3ccccc23)c1 (stereo not shown) [Compound 12-7]
1 to 3 µM	COc1cccc(-c2nc(C3CCCN(C(=O)c4ccc(C)cc4C)C3)n3ccccc23)c1 (stereo not shown) [Compound 12-8]
0.5 to 1 µM	COc1cccc(-c2nc(C3CCCN(C(=O)c4ccc(OC)cc4C)C3)n3ccccc23)c1 (stereo not shown) [Compound 12-9]
1 to 3 µM	COc1cccc(-c2nc(C3CCCN(C(=O)c4ccc(F)cc4C)C3)n3ccccc23)c1 (stereo not shown) [Compound 12-10]
0.5 to 1 µM	COc1cccc(-c2nc(C3CCCN(C(=O)c4ccc(F)cc4F)C3)n3ccccc23)c1 (stereo not shown) [Compound 12-11]
0.5 to 1 µM	COc1cccc(-c2nc(C3CCCN(C(=O)c4ccc(F)c(F)c4)C3)n3ccccc23)c1 (stereo not shown) [Compound 12-12]
0.1 to 0.5 µM	COc1cccc(-c2nc([C@@H]3CCCN(C(=O)Cc4cccc(F)c4)C3)n3ccccc23)c1 [Compound 12-13]
0.5 to 1 µM	COc1cccc(-c2nc([C@@H]3CCCN(C(=O)c4cccc(F)c4)C3)n3ccccc23)c1 [Compound 12-14]
0.1 to 0.5 µM	COc1cccc(-c2nc([C@H]3CCCN(C(=O)c4cccc(F)c4)C3)n3ccccc23)c1 [Compound 12-15]
1 to 3 µM	COc1cccc(-c2nc([C@H]3CCCN(C(=O)Cc4cccc(F)c4)C3)n3ccccc23)c1 [Compound 12-16]

IC50	Structure (SMILES)
0.1 to 0.5 µM	COc1cccc(-c2nc(C3CCCN(C(=O)Nc4ccccc4F)C3)n3c(OC)cccc23)c1 (stereo not shown) [Compound 13-1, N-(2-fluorophenyl)-3-(5-methoxy-1-(3-methoxyphenyl)imidazo[1,5-a]pyridin-3-yl)piperidine-1-carboxamide]
0.5 to 1 µM	COc1cccc(-c2nc(C3CCCN(C(=O)c4ccccc4OC)C3)n3c(OC)cccc23)c1 (stereo not shown) [Compound 14-1, (3-(5-methoxy-1-(3-methoxyphenyl)imidazo[1,5-a]pyridin-3-yl)piperidin-1-yl)(2-methoxyphenyl)methanone]
> 3 µM	COc1cccc(-c2nc(C3CCCN(C(=O)c4cc(OC)c(OC)c(OC)c4)C3)n3c(OC)cccc23)c1 (stereo not shown) [Compound 14-2]
> 3 µM	COc1cccc(C(=O)N2CCCC(c3nc(-c4cccc(OC)c4)c4cccc(OC)n34)C2)c1 (stereo not shown) [Compound 14-3]
0.1 to 0.5 µM	COc1ccc(C(=O)N2CCCC(c3nc(-c4cccc(OC)c4)c4cccc(OC)n34)C2)cc1 (stereo not shown) [Compound 14-4]
0.1 to 0.5 µM	COc1cccc(-c2nc(C3CCCN(C(=O)c4ccc(OC)c(OC)c4)C3)n3c(OC)cccc23)c1 (stereo not shown) [Compound 14-5]
0.5 to 1 µM	COc1cccc(-c2nc(C3CCCN(C(=O)Cc4ccccc4OC)C3)n3c(OC)cccc23)c1 (stereo not shown) [Compound 15-1, 1-(3-(5-methoxy-1-(3-methoxyphenyl)imidazo[1,5-a]pyridin-3-yl)piperidin-1-yl)-2-(2-methoxyphenyl)ethan-1-one]
0.5 to 1 µM	COc1cccc(-c2nc(C3CCCN(S(=O)(=O)c4ccccc4F)C3)n3ccccc23)c1 (stereo not shown) [Compound 16-1]
> 3 µM	COc1cccc(-c2nc(C3CCCN(S(=O)(=O)c4ccc(F)cc4)C3)n3ccccc23)c1 (stereo not shown) [Compound 16-3]
0.1 to 0.5 µM	COc1cccc(-c2nc(C3CCCN(S(=O)(=O)Cc4cccc(F)c4)C3)n3ccccc23)c1 (stereo not shown) [Compound 16-4]
> 3 µM	COc1cccc(-c2nc(C3CCCN(S(=O)(=O)Cc4ccccc4F)C3)n3ccccc23)c1 (stereo not shown) [Compound 16-5]
0.1 to 0.5 µM	COc1cccc(-c2nc(C3CCCN(S(=O)(=O)Cc4ccc(F)cc4)C3)n3ccccc23)c1 (stereo not shown) [Compound 16-6]
0.1 to 0.5 µM	COc1cccc(-c2nc([C@@H]3CCCN(S(=O)(=O)c4cccc(F)c4)C3)n3ccccc23)c1 [Compound 16-7]
1 to 3 µM	COc1cccc(-c2nc([C@H]3CCCN(S(=O)(=O)Cc4ccc(F)cc4)C3)n3ccccc23)c1 [Compound 16-8]
< 0.1 µM	COc1cccc(-c2nc([C@@H]3CCCN(S(=O)(=O)Cc4ccc(F)cc4)C3)n3ccccc23)c1 [Compound 16-9]
1 to 3 µM	COc1cccc(-c2nc([C@H]3CCCN(S(=O)(=O)c4cccc(F)c4)C3)n3ccccc23)c1 [Compound 16-10]
0.1 to 0.5 µM	COc1cccc(-c2nc(C3CCCN(C(=O)Nc4ccccc4F)C3)n3cccc(C)c23)c1 (stereo not shown) [Compound 17-1, N-(2-fluorophenyl)-3-(1-(3-methoxyphenyl)-8-methylimidazo[1,5-a]pyridin-3-yl)piperidine-1-carboxamide]
0.5 to 1 µM	COc1cccc(-c2nc(C3CCCN(C(=O)Nc4ccccc4F)C3)n3ccc(C)cc23)c1 (stereo not shown) [Compound 17-2]
0.1 to 0.5 µM	COc1cccc(-c2nc(C3CCCN(C(=O)Nc4ccccc4F)C3)n3c(C)cccc23)c1 (stereo not shown) [Compound 17-3]
0.1 to 0.5 µM	COc1cccc(-c2nc(C3CCCN(C(=O)Nc4ccccc4F)C3)n3cc(C)ccc23)c1 (stereo not shown) [Compound 18-1, N-(2-fluorophenyl)-3-(1-(3-methoxyphenyl)-6-methylimidazo[1,5-a]pyridin-3-yl)piperidine-1-carboxamide]
> 3 µM	COc1cccc(-c2nc(C3CCCN(C(=O)Nc4ccccc4F)C3)n3cccc(OC)c23)c1 (stereo not shown) [Compound 19-1]
> 3 µM	COc1cccc(-c2nc(C3CCCN(C(=O)Nc4ccccc4F)C3)n3ccc(OC)cc23)c1 (stereo not shown) [Compound 19-2]
1 to 3 µM	COc1cccc(-c2nc(C3CCCN(C(=O)Nc4ccccc4F)C3)n3cc(OC)ccc23)c1 (stereo not shown) [Compound 19-3, N-(2-fluorophenyl)-3-(6-methoxy-1-(3-methoxyphenyl)imidazo[1,5-a]pyridin-3-yl)piperidine-1-carboxamide]
